Measured values: publication PMC8402547, “In Vitro and In Vivo Analysis of Ochratoxin A-Derived Glucuronides and Mercapturic Acids as Biomarkers of Exposure” (Toxins, 2021)

Legend:
[1] = In vitro incubation of OTA with liver S9 in the presence of GSH or NAC; type: in vitro ADME, human; settings: for Time-dependent formation from OTA: human liver S9, with NADPH regenerating system, GSH or NAC 5 mM, t = 0, 60, 120 min
Experimental: (§1) Liver S9 fractions from rats (Sprague-Dawley, male, 97 donors, 20 mg/mL) and humans (mixed genders, 50 donors, 20 mg/mL) were obtained from XenoTech (Kansas City, USA). S9 fractions from Goettingen® minipigs and rabbits were prepared in-house based on a modified protocol from Hubbard et al. (1985). Rabbit liver (Blue Vienna x German Giant, female) was obtained from ImmonuGlobe (Himmelstadt, Germany), whereas minipig liver (Goettingen® minipig, male, 42.4 kg bw) was obtained from the University Goettingen, Department of Animal Science.
(§2) For analysis of OTA-derived GSH and NAC conjugates, liver S9 fractions (4 mg/mL) of rats, rabbits, minipigs and humans were incubated with OTA (0.1 mM), GSH or NAC (5 mM) and an NADPH regenerating system (NADP (5 mM), glucose-6-phosphate (5 mM), glucose-6-phosphate-dehydrogenase (1.25 units/mL)) in 100 mM phosphate-buffered saline (pH 7.4) in a total volume of 300 µL at 37 °C for two hours. Control incubations were carried out a) in the absence of GSH/NAC and b) in the absence of the NADPH regenerating system. Aliquots (100 µL) were removed immediately (t = 0) as well as after 60 (t = 60) and 120 (t = 120) minutes, and the enzymatic reaction was stopped by addition of 200 µL ACN and centrifugation (20 min, 4 °C, 20,000× g). The supernatants were removed and stored at −80 °C until further analysis.
(§3) LC–MS/MS analyses were performed on an Agilent 1100 series LC coupled to an API 2000/Q-Trap mass spectrometer (Applied Biosystems/MDS Sciex, Concord, Canada). Samples were injected into the LC–MS/MS system through an Agilent 1100 series autosampler. Separations were carried out on a ReproSil-Pur C18 AQ column (2 mm × 150 mm, 5 µm; Dr. Maisch; Ammerbuch, Germany). Gradient elution of OTA-derived metabolites was carried out with water + 0.1% formic acid (solvent A) and acetonitrile (solvent B). Initially, solvent A was held isocratic for 5 min at 100%, followed by a linear gradient to 95% B in 5 min. These conditions were held for further 5 min. Within 1 min, the gradient decreased linearly to 0% B and remained at initial conditions until the end of analysis (30 min). A flow rate of 0.2 mL/min was used. For each run, 10 µL of the respective sample were injected by the autosampler.
(§4) The API 2000/Q-Trap mass spectrometer was operated with a Turbo Ion Spray source in negative ion mode with a voltage of −4000 V. Spectral data were recorded with N2 as the heater gas at 450 °C and as the collision gas (CAD = −2) in multiple reaction monitoring mode (MRM).
(§5) In addition to MRM, constant neutral loss of 129 amu in the negative ion mode based on the characteristic fragmentation pattern of mercapturic acids was used to screen for N-acetyl-cysteine conjugates of OTA. Furthermore, constant neutral loss of 176 amu in positive ion mode based on the fragmentation pattern of glucuronic acid conjugates was used to screen for OTA glucuronides.

[2] = as above; type: in vitro ADME, rat; settings: for Time-dependent formation from OTA: rat liver S9, with NADPH regenerating system, GSH or NAC 5 mM, t = 0, 60, 120 min; for Formation from OTA in the absence of the NADPH regenerating system: rat liver S9, no NADPH regenerating system
Experimental: as §1, §2, §3, §4, §5

[3] = as above; type: in vitro ADME, rabbit; settings: for Time-dependent formation from OTA: rabbit liver S9, with NADPH regenerating system, GSH or NAC 5 mM, t = 0, 60, 120 min; for Formation from OTA in the absence of the NADPH regenerating system: rabbit liver S9, no NADPH regenerating system
Experimental: as §1, §2, §3, §4, §5

[4] = as above; type: in vitro ADME, minipig; settings: for Time-dependent formation from OTA: minipig liver S9, with NADPH regenerating system, GSH or NAC 5 mM, t = 0, 60, 120 min; for Formation from OTA in the absence of the NADPH regenerating system: minipig liver S9, no NADPH regenerating system
Experimental: as §1, §2, §3, §4, §5

[5] = Direct LC–MS/MS analysis of OTA metabolites in urine of OTA-treated rats; type: in vivo, male F344/N rats; settings: OTA up to 2 mg/kg bw, negative ionization mode
Experimental: Archived urine samples from previous repeated dose oral toxicity studies on OTA in male F344/N rats were used. The studies were performed according to national animal welfare regulations after authorization by the local authorities (Regierung von Unterfranken, AZ 621-2531.01-9/98 and AZ 54-2531.01-59/05).
14-day study: Male F344 rats (170–190 g) were purchased from Charles-River Laboratories, Sulzfeld, Germany. Animals had free access to water and standard diet (Altromin) and were kept under standard conditions (12 h day/night cycle, temperature 21–23 °C, humidity 45–55%). Rats were transferred to metabolic cages (Tecniplast Metabolic Cage—Rats Over 300 g; Tecniplast, Italy) for collection of urine 3 days prior to dosing. Animals were administered OTA dissolved in corn oil by oral gavage at 0, 0.25, 0.5, 1.0 and 2.0 mg/kg bw for 2 weeks (5 days per week). Urine was collected every 12 h on day 1 of treatment and every 24 h thereafter on ice, aliquoted and stored at −20 °C until further analysis.
90-day study: Male F344/N rats (6–7 weeks old) were purchased from Harlan-Winkelmann, Borchen, Germany. Animals were housed in groups of 5 in Macrolon type-4 cages and allowed free access to pelleted standard rat maintenance diet (SSNIFF, Soest, Germany) and tap water. After a week of acclimatization, rats (n = 5/dose) were exposed to OTA dissolved in corn oil by oral gavage at doses of 0, 21, 70 or 210 µg/kg bw for 2, 4 or 13 weeks (5 days per week). For urine collection, animals were transferred into metabolic cages (Tecniplast Metabolic Cage—Rats Over 300 g; Tecniplast, Italy) 48 h prior to necropsy and fasted for 20 h but allowed free access to tap water. Urine was collected for 24 h on ice, aliquoted and stored at −20 °C until further analysis.
Urine samples were diluted with acetonitrile (2:1), vortexed and cleared via centrifugation (4 °C, 15 min., 2000× g) to precipitate proteins. Of the resulting supernatant, 10 µL were injected into the LC–MS system and analyzed using the method described below.
as §3, §4, §5

SMILES	Time-dependent formation from OTA [1]	Time-dependent formation from OTA [2]	Time-dependent formation from OTA [3]	Time-dependent formation from OTA [4]	Formation from OTA in the absence of the NADPH regenerating system ([1]; human liver S9, no NADPH regenerating system)	Formation from OTA in the absence of the NADPH regenerating system [2]	Detection in urine of OTA-treated rats by direct LC–MS/MS (MRM) [5]	Formation from OTA in the absence of the NADPH regenerating system [3]	Formation from OTA in the absence of the NADPH regenerating system [4]
C[C@H]1OC(=O)c2c(ccc(C(=O)N[C@@H](Cc3ccccc3)C(=O)O)c2O)[C@H]1O [4-hydroxy-OTB]	not observed	not observed	not observed	not observed	–	–	–	–	–
C[C@@H](O)Cc1c(Cl)cc(C(=O)N[C@@H](Cc2ccccc2)C(=O)O)c(O)c1C(=O)O [OP-OTA]	–	observed	–	observed	not formed	not formed	traces	not formed	not formed
C[C@@H]1Cc2c(SC[C@H](NC(=O)CC[C@H](N)C(=O)O)C(=O)NCC(=O)O)cc(C(=O)N[C@@H](Cc3ccccc3)C(=O)O)c(O)c2C(=O)O1 [OTB-GSH]	not evident	not evident	not evident	not evident	–	–	–	–	–
CC(=O)NC(CSc1cc(C(=O)N[C@@H](Cc2ccccc2)C(=O)O)c(O)c2c1C[C@@H](C)OC2=O)C(=O)O (stereo partly drawn) [OTB-NAC]	not evident	not evident	not evident	not evident	–	–	did not confirm the presence	–	–
C[C@@H]1Cc2ccc(C(=O)N[C@@H](Cc3ccccc3)C(=O)O)c(O)c2C(=O)O1 [OTB]	no time-dependent increase	no time-dependent increase	no time-dependent increase	no time-dependent increase	–	–	–	–	–
C[C@@H]1Cc2c(O)c(SC[C@H](NC(=O)CC[C@H](N)C(=O)O)C(=O)NCC(=O)O)c(C(=O)N[C@@H](Cc3ccccc3)C(=O)O)c(O)c2C(=O)O1 [OTHQ-GSH]	not evident	not evident	not evident	not evident	–	detected	–	detected	detected
CC(=O)NC(CSc1c(O)c2c(c(O)c1C(=O)N[C@@H](Cc1ccccc1)C(=O)O)C(=O)O[C@H](C)C2)C(=O)O (stereo partly drawn) [OTHQ-NAC]	not evident	not evident	not evident	not evident	–	–	not detected	–	–
C[C@@H]1Cc2c(O)cc(C(=O)N[C@@H](Cc3ccccc3)C(=O)O)c(O)c2C(=O)O1 [OTHQ]	not observed	not observed	not observed	not observed	–	–	not detected	–	–
C[C@@H]1Cc2c(Cl)cc(C(=O)O)c(O)c2C(=O)O1 [OTalpha]	–	–	–	–	–	–	consistently found	–	–
